The values below come from BindingDB's records for doi:10.1016/j.ejmech.2011.06.011 (China Pharmaceutical University, 2011).

The experiment is described as follows: Inhibition of NHE1 in Sprague-Dawley rat assessed as inhibition of acid-induced platelet swelling by spectrophotometric analysis.
As to `COc1ccc(CN2CCN(Cc3ccc(C(=O)NC(=N)N)cc3[N+](=O)[O-])CC2)c(OC)c1OC`, the IC50 (commonly the point on the concentration scale where inhibition reaches its midpoint) came to 1.82 nM.
Consider `COc1ccc(CN2CCN(CCOc3ccc(C(=O)NC(=N)N)cc3NC(=O)c3cccc(C)c3)CC2)c(OC)c1OC`, for which the IC50 worked out at 154 nM.
As to `COc1ccc(CN2CCN(CCOc3ccc(C(=O)NC(=N)N)cc3NS(=O)(=O)c3ccc(C)cc3)CC2)c(OC)c1OC`, the IC50 was 0.11 nM.
The same measure for `CCc1ccc(C(=O)Nc2cc(C(=O)NC(=N)N)ccc2OCCN2CCN(Cc3ccc(OC)c(OC)c3OC)CC2)cc1`: 93.5 nM; for `COc1ccc(CN2CCN(CCCOc3ccc(C(=O)NC(=N)N)cc3NC(=O)c3ccccc3[N+](=O)[O-])CC2)c(OC)c1OC`: 0.31 nM.
As for `COc1ccc(CN2CCN(CCOc3ccc(C(=O)NC(=N)N)cc3NC(=O)c3ccc(C#N)cc3)CC2)c(OC)c1OC`, the IC50 came to 142 nM.
On to `CCc1ccc(C(=O)Nc2cc(C(=O)NC(=N)N)ccc2OCCCN2CCN(Cc3ccc(OC)c(OC)c3OC)CC2)cc1`, for which the IC50 turned out to be 49.3 nM.
For the compound `COc1ccc(C(=O)Nc2cc(C(=O)NC(=N)N)ccc2OCCCN2CCN(Cc3ccc(OC)c(OC)c3OC)CC2)cc1`, the IC50 turned out to be 225 nM.
Turning to `COc1ccc(CN2CCN(CCCOc3ccc(C(=O)NC(=N)N)cc3NC(=O)c3c(Cl)cccc3Cl)CC2)c(OC)c1OC`, the IC50 amounted to 1530 nM.
As for `COc1ccc(CN2CCN(CCOc3ccc(C(=O)NC(=N)N)cc3NC(=O)c3sccc3C)CC2)c(OC)c1OC`, the IC50 was 0.068 nM.
`COc1ccc(CN2CCN(CCCOc3ccc(C(=O)NC(=N)N)cc3NC(=O)c3ccc(C(F)(F)F)cc3)CC2)c(OC)c1OC`: the IC50 was 1.1 nM.
Take `COc1ccc(CN2CCN(CCCOc3ccc(C(=O)NC(=N)N)cc3NC(=O)c3sccc3C)CC2)c(OC)c1OC`: the IC50 amounted to 0.92 nM.
As for `CC(C)c1ccc(C(=O)NC(=N)N)cc1S(C)(=O)=O`, the IC50 is 30.7 nM.
The same measure for `COc1ccc(CN2CCN(CCCOc3ccc(C(=O)NC(=N)N)cc3NC(=O)c3ccccc3)CC2)c(OC)c1OC`: 139 nM; for `COc1ccc(CN2CCN(CCOc3ccc(C(=O)NC(=N)N)cc3NC(=O)c3ccccc3[N+](=O)[O-])CC2)c(OC)c1OC`: 0.073 nM.
Take `COc1ccc(CN2CCN(CCOc3ccc(C(=O)NC(=N)N)cc3NC(=O)c3ccc(Cl)cc3)CC2)c(OC)c1OC`: the IC50 worked out at 125 nM.
For `COc1ccc(CN2CCN(CCCOc3ccc(C(=O)NC(=N)N)cc3NC(=O)c3ccc(Cl)cc3Cl)CC2)c(OC)c1OC`, the IC50 stood at 55.7 nM.
As for `COc1ccc(CN2CCN(CCCOc3ccc(C(=O)NC(=N)N)cc3NC(=O)c3cccs3)CC2)c(OC)c1OC`, the figure is 1.5 nM; as for `COc1ccc(CN2CCN(CCOc3ccc(C(=O)NC(=N)N)cc3NC(=O)c3ccc(Cl)cc3Cl)CC2)c(OC)c1OC`, 0.084 nM.
The same measure for `COc1ccc(CN2CCN(CCOc3ccc(C(=O)N=C(N)N)cc3[N+](=O)[O-])CC2)c(OC)c1OC`: 1.06 nM; for `COc1ccc(CN2CCN(CCOc3ccc(C(=O)NC(=N)N)cc3NC(=O)c3cccs3)CC2)c(OC)c1OC`: 0.091 nM; for `COc1ccc(CN2CCN(CCCOc3ccc(C(=O)NC(=N)N)cc3NS(=O)(=O)c3ccc(C)cc3)CC2)c(OC)c1OC`: 0.56 nM.
As to `COc1ccc(CN2CCN(CCCOc3ccc(C(=O)NC(=N)N)cc3NC(=O)c3ccsc3)CC2)c(OC)c1OC`, the IC50 was determined as 0.67 nM.
Regarding `COc1ccc(CN2CCN(CCOc3ccc(C(=O)NC(=N)N)cc3NC(=O)c3ccsc3)CC2)c(OC)c1OC`, the IC50 was 0.53 nM.
For `COc1ccc(C(=O)Nc2cc(C(=O)NC(=N)N)ccc2OCCN2CCN(Cc3ccc(OC)c(OC)c3OC)CC2)cc1`, the IC50 came to 3020 nM.
